Several values for one entry are separate records, joined by “and”; a condition that tells them apart may be missing. Equal values may be shown once. Read-outs that look alike come from different tables or passages of the source. *1 amine or outer side, *2 acyl side, *3 side chain or, on linkers, in order; H or OH if unused. Where a SMILES comes first, the peptide text is derived from it. Bridges are numbered along the chain shown (N, C = ends). Roman numbers before positions name the chains, in order. [ ]: non-standard residue; d: D form. Actinocin(9to1) = Cc1c2oc3c(C)ccc(C(=O)[*:1])c3nc-2c(C(=O)[*:2])c(N)c1=O; NMeV = CN[C@H](C(=O)O)C(C)C; Sar = CNCC(=O)O
Key:
[1] = tested on: IL-1-Induced Hypotension in Dogs; assay: IL-1-induced hypotension in dogs; assay type: in vivo; conditions: for MAP increase after NAA: NAA 20 mg/kg iv single bolus
Method: • FIGURE 1 - Reversal of hypotension associated with the administration of IL-1 to dogs. The tracing shown is a representative experiment that was repeated four times. Each dog was anesthetized and […] as described herein, and baseline cardiovascular data were monitored for 30 minutes. IL-1 was dissolved in phosphate-buffered saline (pH 7.4) containing 1 mg/ml of dog albumin, and the resulting solution was infused intravenously for three minutes to deliver a dose of 50 µg/kg. MAP was continuously monitored; when a stable nadir was reached and maintained for more than 10 minutes or when MAP dropped below 50 mm Hg, NAA (20 mg/kg in 10 ml phosphate-buffered saline) was administered by intravenous infusion for 30 seconds. Sixty minutes after MAP was restored to baseline or higher values, L-arginine (400 mg/kg in 20 ml phosphate-buffered saline) was administered by slow intravenous infusion for 5 minutes. Anesthetized dogs given IL-1 (50 µg/kg) developed a progressive, moderately severe hypotension, with MAP decreasing from a baseline of 111 +/- 7 mm Hg to 80 +/- 2 mm Hg within about 3 hours. Hypotension was rapidly reversed by the intravenous administration of a single bolus dose of NAA (20 mg/kg, 88 umol/kg), with MAP increasing by from 46 +/- 9 mm Hg (58%_ to 125 +/- 8 mm Hg. • FIGURES 2A, 2B, 2C - Inhibition of IL-1-activated NO· production by N^ω-substituted arginine analogues. Figure 2A: Comparison of nitrite synthesis inhibition in smooth muscle cells by the L-isomers of NAA, NMA, and NNA and by the D-isomer of NMA. Figure 2B: Concentration dependence of nitrite synthesis inhibition in smooth muscle cells by NAA as a function of different L-arginine concentration in the culture medium. Confluent monolayers of smooth muscle cells in 96-well microtiter plates were treated with a combination of 100 ng/ml IL-1 and 50 ng/ml IFN-γ for 24 hours. Cells were then washed with Hanks' balanced salt solution, and fresh medium containing the indicated concentration of L-arginine was added. Points indicate means ± SD of nitrite production, expressed as percent of control, during a 16-hour exposure to arginine analogues (n = 3-4). Figure 2C: Effect of NAA on smooth muscle cell NO· synthase. Cytosol from cytokine-induced smooth muscle cells (∼2 µg protein) was incubated with 1 mM L-arginine, 0.5 mM NADPH, 1 mM dithiothreitol, 10 µM flavin-adenine dinucleotide, 10 µM tetrahydrobiopterin, and 0.1 U/ml dihydropteridine reductase in a total volume of 100 µL. The time course of Fe^2+-myoglobin oxidation was measured in the absence (control) or presence of 300 µM NAA (+NAA). […] FIGURE A: Time course of nitrite synthesis elicited by 40 ng/mL IL-1 alone (open circles) and by IL-1 in the presence of 50 ng/ml IFN-γ (open triangles). […] Inclusion of IL-1 receptor antagonist (40 µg/mL; filled symbols) in the culture medium inhibited nitrite production stimulated by both IL-1 and IL-1 plus IFN-γ. FIGURE B: IL-1 concentration dependence for smooth muscle cell nitrite production. Data points indicate nitrite produced during a 29-hour incubation with the indicated concentration of IL-1 alone (open circles) or in the presence of IL-1 plus 50 ng/mL IFN-γ (open triangles). All values are means ± SD for nitrite production by confluent smooth muscle cell monolayers grown in 96-well microtiter plates (60-80 X 10^3 cells per well; n = 3-4).
Experiments were conducted on healthy mongrel dogs that were free of microfilaria and weighed 25-28 kg each. […]

[2] = tested on: hypotension associated with the administration of TNF in the dog; assay: TNF-induced hypotension in the dog; assay type: in vivo, dogs; conditions: dog; Figure 7
Method: Recombinant human TNF, specific activity 2 x 10^7 units/mg, was from the Dainippon Chemical Corporation, Tokyo, Japan. TNF was administered at a dose of 10 µg//kg in a volume of 10 ml of phosphate buffered saline containing 17 mg/ml of dog albumin. […] Arginine was obtained from Sigma Chemical Company, St. Louis, Mo.
Four conditioned mongrel dogs, 2 males and 2 females, weighing 28 to 30 kg, were studied. Care of the animals were in accordance with the recommendations of the American Association for Accreditation of Laboratory Animals [DHEW(DHHS) publication no. (NIH) 78-23, revised, 1978]. On the day of the experiment, the dogs were fasted overnight. They were anesthetized with phenobarbital (25 mg/kg). The animals were then intubated orally with a #10 fr. endotracheal tube and ventilated with a Harvard pump ventilator at a rate of 14 breaths per minute and a tidal volume of 15 ml/kg. An arterial line was percutaneously placed in the femoral artery on the day of the experiment.
Mean (electronic) and phasic systemic arterial pressures (SAP) were continuously recorded on a Hewlett-Packard recording system (model 7758B) using strain gauge manometers (Hewlett-Packard model 1290A) which were connected to the arterial line. Heart rate (HR) was determined from an EKG tracing and continuously recorded on the Hewlett-Packard recording system. Oxyhemoglobin saturation (SaO2) was obtained using a pulse oximeter (BIOX 111, Boulder, CO). Continuous time-series records of SAP, HR, and SaO2 were obtained using a Lab Master analog-to-digital convertor (16 channel, 12 bit, 30 kHz; Scientific Solutions, Inc.) sampling at 55 Hz and storing the 6 sec averages on a magnetic disk.

ET shock (lethal dose) = assay: Reversal of ET shock (lethal dose) by multiple doses of NAA; assay type: in vivo
Method: The reversal of ET shock (lethal dose) by Nω-aminoarginine (NAA) for 4 hrs. […] Figure 8 depicts systemic arterial pressure (SAP) versus time (min). ET (2 mg/kg), a lethal dose, was infused over 60 min. and NAA administered at 97, 165, and 374 min. to maintain blood pressure. The animal was survived for 24 hours and then autopsied.

[3] = tested on: Actinomycin D-Treated L929 Cells; assay: Cytolytic activity of rh-TNF against L929 cells; assay type: cell-based, murine; conditions: murine L929 cells
Method: TNF bioactivity was measured by the cytotoxicity towards murine L929 cells, in vitro. […]

[4] = tested on: nitric oxide synthase in rat aortic smooth muscle cells; assay: Induction and assay of nitrite synthesis in smooth muscle cells; assay type: cell-based
Method: Rat aortic smooth muscle cells were incubated with RPMI-1640 medium containing 10% bovine calf serum, 25 mM HEPES buffer (pH 7.4), 2 mM glutamine, […], and IL-1, IFN-γ, and various inhibitors at the concentrations indicated in the figure legends. At the desired times, nitrite concentration in the culture medium was measured using the standard Griess assay adapted to a 96-well microtiter plate reader.^36 The Griess assay is also described in Gross et al.^37 (1991). Thus, 100 µL of Griess reagent (0.5% sulfanilic acid, 0.05% naphthalenediamine, and 2.5% phosphoric acid) was added to an equal volume of culture medium, and the OD550 was measured and related to nitrite concentration by reference to a standard curve. […]
Rat aortic smooth muscle cells were incubated with RPMI-1640 medium containing 10% bovine calf serum, 25 mM HEPES buffer (pH 7.4), 2mM glutamine, 80 U/mL penicillin, 80 µg/mL streptomycin, 2 µg/mL fungizone, and IL-1, IFN-γ, and various inhibitors at the concentrations indicated in the figure legends. At the desired times, nitrite concentration in the culture medium was measured using the standard Griess assay (Green, L., et al. Anal. Biochem. 126:131-138, 1982) adapted to a 96-well microtiter plate reader (Gross, S.S., et al. Biochem. Biophys. Res. Commun. 178:823-829, 1991). […]

[5] = Cell respiration assay (MTT); assay type: cell-based; conditions: rat, aortic smooth muscle cells; read-out: MTT reduction [mean ± SD], of that measured in control cells treated with IL-1 alone
Excerpt: The extent of reduction of MTT to formazan within cells, quantitated by measurement of the optical density at 550 nm (OD550), was taken as an indicator of cellular respiration.

## N=C(NN)NCCC[C@H](N)C(=O)O [NAA, N^ω-amino-L-arginine]
[1]; IL-1-treated dogs, average
  systemic vascular resistance after injection of NAA, higher than baseline: 43%
[1]; anesthetized dogs (n = 4) made hypotensive with IL-1 50 µg/kg
  MAP increase after NAA: 46 ± 9 mm Hg and 46 +/- 9 mm Hg
[1]; control dogs not given IL-1, NAA
  average increase in MAP above baseline: 20.1 ± 3.8 mm Hg
[1]; dogs given IL-1 50 µg/kg (MAP 80 ± 2 before NAA), NAA 20 mg/kg iv
  MAP after NAA: 125 ± 8 mm Hg and 125 +/- 8 mm Hg
[1]; dogs given IL-1 50 µg/kg, NAA 20 mg/kg
  average increase of MAP following NAA above the pre-IL-1 baseline MAP: 14.3 ± 7.7 mm
[1]; dogs given IL-1 50 µg/kg
  MAP increase after NAA: 58%
[1]; dogs treated with IL-1, then NAA, P = .037
  reduction in cardiac output compared with that after IL-1: 25.2%
[1]; dogs treated with IL-1, then NAA, baseline 2.25, P = .204
  cardiac output after NAA: 1.93 L/min
[1]; dogs treated with NAA alone, P = .046
  decrease in cardiac output: 29.2%
[1]; second and third injections of NAA (20 mg/kg), cytokine-treated dogs
  duration physiologically acceptable MAP readings maintained: up to 7 hours
[1]; single injections of NAA (20 mg/kg) in cytokine-treated dogs, no L-arginine
  duration MAP maintained at baseline or higher levels: up to 60 minutes
[2]
  reversing the hypotension associated with TNF administration: as effective as NMMA
ET shock (lethal dose); ET 2 mg/kg, multiple doses of NAA, then autopsied
  survival of the animal: 24 h
ET shock (lethal dose); autopsy after 24 hours
  pathological changes in liver, lungs, heart, brain, bowel or kidney: No pathological changes were observed
[3]
  effect on the cytolytic effect of TNF towards tumor cells in vitro: did not alter

## C[C@@H]1C[C@@H]([C@H](O)CC2CC(=O)NC(=O)C2)C(=O)[C@@H](C)C1 [cycloheximide]
[4]
  nitrite produced: less than 0.1 nmol

## Cc1c2oc3c(C)ccc(C(=O)N[C@@H]4C(=O)N[C@H](C(C)C)C(=O)N5CCC[C@H]5C(=O)N(C)CC(=O)N(C)[C@@H](C(C)C)C(=O)O[C@@H]4C)c3nc-2c(C(=O)N[C@@H]2C(=O)N[C@H](C(C)C)C(=O)N3CCC[C@H]3C(=O)N(C)CC(=O)N(C)[C@@H](C(C)C)C(=O)O[C@@H]2C)c(N)c1=O [dactinomycin] (I: T[dV]P[Sar][NMeV] / II: T[dV]P[Sar][NMeV]; ester I:1-I:C, II:1-II:C; linker I:N-II:N via Actinocin(9to1))
[4]; cells cultured 14 hours with IL-1 (100 ng/mL) and IFN-γ (50 ng/mL) plus 0.5 mg/mL dactinomycin or 1 mg/mL cycloheximide, then 16 hours in cytokine-free medium, control 2.52
  nitrite produced: less than 0.1 nmol
[5]
  viability: 101%
